Measurements published in patent US9738932B2, “Biomarkers for cardiovascular side-effects induced by cox-2 inhibitory compounds” (FIRALIS SAS, priority 2005, dated 2017).

Legend:
[1] = test system: mRNA expression in cardiovascular tissues; assay: Affymetrix GeneChip mRNA expression profiling of monkey tissues (iliac vein, pulmonary vein, aorta, carotid artery, heart) after two-week oral-gavage treatment; details: iliac vein; group average (Vioxx without A60055)
Experimental: (§1) Administration of compounds. A two-week oral-gavage treatment with the Cox-2 specific inhibitor COX189 (Lumiracoxib®, Novartis) in comparison with rofecoxib (Vioxx®, Merck), and celecoxib (Celebrex®, Pharmacia/Pfizer), and with the nonselective NSAID, diclofenac (Voltaren®, Novartis) was performed. […] The test items were administered daily at doses of 100 mg/kg/day, except Vioxx® which was administered at 50 mg/kg/day.
(§2) Gene expression profiles. After a period of time (e.g., four weeks) of compound/drug administration, the treated animals are necropsied. 120 tissues are dissected and rapidly snap-frozen for genomics analysis. Organ samples are isolated for histopathological examinations and for gene expression localizations, such as by in situ hybridization.
(§3) Gene expression profiles have been generated using the Affymetrix microarray technology. (i) RNA extraction and purification: Briefly, total RNA was obtained by acid guanidinium thiocyanate-phenol-chloroform extraction (Trizol®, Invitrogen Life Technologies, San Diego, Calif.) from each frozen tissue section and the total RNA was then purified on an affinity resin (Rneasy®, Qiagen) according to the manufacturer's instructions. Total RNA was quantified by the absorbance at λ=260 nm (A260 nm) and the purity was estimated by the ratio A260 nm/A280 nm. Integrity of the RNA molecules was confirmed by non-denaturing agarose gel electrophoresis. RNA was stored at −80° C. until analysis. […] (ii) GeneChip® experiment: All GeneChip® experiments were conducted in the Genomics Factory EU following recommendations by the manufacturer of the GeneChip® system (Affymetrix, Expression Analysis Technical Manual (Affymetrix, Santa Clara, Calif., 2005). Human U133A genome arrays were used for transcript expression analysis. Double stranded cDNA was synthesized with a starting amount of approximately 5 μg full-length total RNA using the Superscript Choice System (Invitrogen Life Technologies) in the presence of a T7-(dT) 24 DNA oligonucleotide primer. Following synthesis, the cDNA was purified by phenol/chloroform/isoamyl alcohol extraction and ethanol precipitation. The purified cDNA was then transcribed in vitro using the BioArray® High Yield RNA Transcript Labeling Kit (ENZO) in the presence of biotinylated ribonucleotides form biotin labelled cRNA. The labelled cRNA was then purified on an affinity resin (Rneasy, Qiagen), quantified and fragmented. An amount of approximately 10 μg labelled cRNA was hybridized for approximately 16 hours at 45° C. to an expression probe array. The array was then washed and stained twice with streptavidin-phycoerythrin (Molecular Probes) using the GeneChip Fluidics Workstation 400 (Affymetrix). The array was then scanned twice using a confocal laser scanner (GeneArray Scanner®, Agilent) resulting in one scanned image. This resulting “.dat-file” was processed using the MASS program (Affymetrix) into a “.cel-file”. The “.cel file” was then transferred to tan Affymetrix GeneChip Laboratory Information Management System (LIMS) database, which is connected to a UNIX Sun Solaris server through a network filing system that allows for the average intensities for all probes cells (CEL file) to be downloaded into an Oracle database (NPGN). Raw data was converted to expression levels using a “target intensity” of 100. […] The data were checked for quality and loaded in the GeneSpring® software versions 5.0 (Silicon Genetics, Calif., US) for statistical analysis.
(§4) Quality control analysis of transcriptome data: The following quality measures were analysed for each sample: Scaling factor, background, percent present calls, AFFX-GAPDH 3′: AFFX-GAPDH 5′-ratio, AFFX-GAPDH 3′ variance, AFFX-Beta-actin 3′: AFFX-Beta-actin 5′-ratio.

[2] = test system: mRNA expression in cardiovascular tissues; details: cynomolgus monkey, in vivo
Experimental: as §1, §2, §3, §4

**Q.** Which results are given for `Cc1ccc(-c2cc(C(F)(F)F)nn2-c2ccc(S(N)(=O)=O)cc2)cc1` [Celebrex]?
**A.** ACE (209749_s_at) mRNA expression, Avg fold changes vs control [1]: 0.8 fold; B2M (216231_s_at) mRNA expression, Avg fold changes vs control [1]: 1.3 fold; BCL6 (215990_s_at) mRNA expression, Avg fold changes vs control [1]: 0.9 fold; BTN2A2 (205298_s_at) mRNA expression, Avg fold changes vs control [1]: 1.2 fold; CCR1 (205098_at) mRNA expression, Avg fold changes vs control [1]: 0.9 fold; CD2 (205831_at) mRNA expression, Avg fold changes vs control [1]: 1.5 fold; CD48 (204118_at) mRNA expression, Avg fold changes vs control [1]: 1.7 fold; CD53 (203416_at) mRNA expression, Avg fold changes vs control [1]: 2.3 fold; CDC2 (210559_s_at) mRNA expression, Avg fold changes vs control [1]: 1.3 fold; CYBB (203922_s_at) mRNA expression, Avg fold changes vs control [1]: 1.7 fold; EMP3 (203729_at) mRNA expression, Avg fold changes vs control [1]: 0.9 fold; FCER1G (204232_at) mRNA expression, Avg fold changes vs control [1]: 1.3 fold; FCGR2A (203561_at) mRNA expression, Avg fold changes vs control [1]: 1.4 fold; FCGRT (218831_s_at) mRNA expression, Avg fold changes vs control [1]: 1.0 fold; FKBP11 (219117_s_at) mRNA expression, Avg fold changes vs control [1]: 0.8 fold; FKBP11 (219118_at) mRNA expression, Avg fold changes vs control [1]: 1.0 fold; GP6 (220336_s_at) mRNA expression, Avg fold changes vs control [1]: 1.1 fold; HCLS1 (202957_at) mRNA expression, Avg fold changes vs control [1]: 1.5 fold; HEM1 (209734_at) mRNA expression, Avg fold changes vs control [1]: 1.5 fold; HLA-A (210514_x_at) mRNA expression, Avg fold changes vs control [1]: 1.1 fold; HLA-A (213932_x_at) mRNA expression, Avg fold changes vs control [1]: 1.3 fold; HLA-C (211799_x_at) mRNA expression, Avg fold changes vs control [1]: 1.0 fold; HLA-E (200904_at) mRNA expression, Avg fold changes vs control [1]: 1.2 fold; HLA-F (221978_at) mRNA expression, Avg fold changes vs control [1]: 1.2 fold; ICAM1 (202637_s_at) mRNA expression, Avg fold changes vs control [1]: 0.9 fold; IL13RA1 (210904_s_at) mRNA expression, Avg fold changes vs control [1]: 0.9 fold; PIK3CD (203879_at) mRNA expression, Avg fold changes vs control [1]: 1.7 fold; PRKCBP1 (209048_s_at) mRNA expression, Avg fold changes vs control [1]: 1.2 fold; PRKCBP1 (209049_s_at) mRNA expression, Avg fold changes vs control [1]: 1.2 fold; PTPN7 (204852_s_at) mRNA expression, Avg fold changes vs control [1]: 2.0 fold; SIGIRR (52940_at) mRNA expression, Avg fold changes vs control [1]: 1.2 fold; STAT1 (200887_s_at) mRNA expression, Avg fold changes vs control [1]: 1.1 fold; STAT1 (AFFX-HUMISGF3A/M97935_3_at) mRNA expression, Avg fold changes vs control [1]: 1.1 fold; STAT3 (208992_s_at) mRNA expression, Avg fold changes vs control [1]: 1.0 fold; TCIRG1 (204158_s_at) mRNA expression, Avg fold changes vs control [1]: 0.9 fold; THY1 (213869_x_at) mRNA expression, Avg fold changes vs control [1]: 0.8 fold; TMPO (209753_s_at) mRNA expression, Avg fold changes vs control [1]: 0.9 fold; TMSB10 (217733_s_at) mRNA expression, Avg fold changes vs control [1]: 1.1 fold; TNFRSF21 (218856_at) mRNA expression, Avg fold changes vs control [1]: 1.5 fold; TRB@ (210915_x_at) mRNA expression, Avg fold changes vs control [1]: 2.5 fold; TRB@ (213193_x_at) mRNA expression, Avg fold changes vs control [1]: 2.4 fold; AIF1 (209901_x_at) avg fold change vs control [2]: 1.5 fold; AIF1 (213095_x_at) avg fold change vs control [2]: 2.0 fold; B2M (201891_s_at) avg fold change vs control [2]: 1.3 fold; BTN3A1 (207485_x_at) avg fold change vs control [2]: 1.7 fold; BTN3A3 (204821_at) avg fold change vs control [2]: 1.6 fold; C1S (208747_s_at) avg fold change vs control [2]: 1.0 fold; C2 (203052_at) avg fold change vs control [2]: 1.1 fold; C4A (208451_s_at) avg fold change vs control [2]: 1.6 fold; CASP1 (211367_s_at) avg fold change vs control [2]: 1.2 fold; CCL3 (205114_s_at) avg fold change vs control [2]: 1.3 fold; CCL5 (1405_i_at) avg fold change vs control [2]: 0.9 fold; CCL19 (210072_at) avg fold change vs control [2]: 2.0 fold; CCNB2 (202705_at) avg fold change vs control [2]: 1.2 fold; CD74 (209619_at) avg fold change vs control [2]: 1.3 fold; CX3CR1 (205898_at) avg fold change vs control [2]: 1.1 fold; DUSP6 (208893_s_at) avg fold change vs control [2]: 1.2 fold; ECGF1 (204858_s_at) avg fold change vs control [2]: 1.1 fold; FCGR3A (204006_s_at) avg fold change vs control [2]: 1.3 fold; GZMB (210164_at) avg fold change vs control [2]: 0.9 fold; HLA-DMA (217478_s_at) avg fold change vs control [2]: 1.4 fold; HLA-DQB1 (211656_x_at) avg fold change vs control [2]: 1.6 fold; HLA-DRB1 (215193_x_at) avg fold change vs control [2]: 1.7 fold; IRF1 (202531_at) avg fold change vs control [2]: 1.1 fold; IRF7 (208436_s_at) avg fold change vs control [2]: 2.1 fold; ISGF3G (203882_at) avg fold change vs control [2]: 1.0 fold; LAIR1 (208071_s_at) avg fold change vs control [2]: 3.6 fold; LRMP (204674_at) avg fold change vs control [2]: 3.8 fold; PLA2G4C (209785_s_at) avg fold change vs control [2]: 1.4 fold; TNFSF10 (202687_s_at) avg fold change vs control [2]: 1.3 fold; TNFSF10 (202688_at) avg fold change vs control [2]: 1.3 fold; 209813_x_at avg fold change vs control ([2]; 2 weeks): 1.2 fold; BCL3 (204908_s_at) avg fold change vs control ([2]; 2 weeks): 1.0 fold; BTN3A3 (38241_at) avg fold change vs control ([2]; 2 weeks): 1.1 fold; BTN3A3 (204820_s_at) avg fold change vs control ([2]; 2 weeks): 1.3 fold; C1QA (218232_at) avg fold change vs control ([2]; 2 weeks): 1.5 fold; C1QB (202953_at) avg fold change vs control ([2]; 2 weeks): 1.1 fold; C1R (212067_s_at) avg fold change vs control ([2]; 2 weeks): 0.9 fold; CASP1 (209970_x_at) avg fold change vs control ([2]; 2 weeks): 1.2 fold; CCL2 (216598_s_at) avg fold change vs control ([2]; 2 weeks): 2.3 fold; CCL8 (214038_at) avg fold change vs control ([2]; 2 weeks): 1.3 fold; CCL18 (209924_at) avg fold change vs control ([2]; 2 weeks): 1.5 fold; CD3D (213539_at) avg fold change vs control ([2]; 2 weeks): 3.2 fold; CD8A (205758_at) avg fold change vs control ([2]; 2 weeks): 1.0 fold; CD14 (201743_at) avg fold change vs control ([2]; 2 weeks): 1.1 fold; CLU (208791_at) avg fold change vs control ([2]; 2 weeks): 0.8 fold; CMAH (210571_s_at) avg fold change vs control ([2]; 2 weeks): 1.0 fold; CTSC (201487_at) avg fold change vs control ([2]; 2 weeks): 1.3 fold; CTSK (202450_s_at) avg fold change vs control ([2]; 2 weeks): 1.0 fold; CTSS (202902_s_at) avg fold change vs control ([2]; 2 weeks): 1.2 fold; CXCL9 (203915_at) avg fold change vs control ([2]; 2 weeks): 1.4 fold; CXCL10 (204533_at) avg fold change vs control ([2]; 2 weeks): 1.1 fold; CXCL11 (210163_at) avg fold change vs control ([2]; 2 weeks): 3.7 fold; CXCL11 (211122_s_at) avg fold change vs control ([2]; 2 weeks): 1.6 fold; CXCL12 (209687_at) avg fold change vs control ([2]; 2 weeks): 1.1 fold; CYBA (203028_s_at) avg fold change vs control ([2]; 2 weeks): 1.2 fold; CYBB (203923_s_at) avg fold change vs control ([2]; 2 weeks): 1.2 fold
